# Counter-ions that a name gives are not always drawn.
# Assay: Pulse and systolic/diastolic blood pressure over time after sublingual aerosol or oral administration
# Type: in vivo
# Conditions: hydrochloride, oral
# Method: Die raschere Wirksamkeit der erfindungsgemäßen pharmazeutischen Zubereitung relativ zu einer konventionellen Zubereitung wird nachfolgen an Hand eine Ausführungsbeispieles näher erläutert.
# In einer alkoholischen Lösung wurden hiebei unter Verwendung von Trichlorfluorkohlenwasserstoff als Treibgas 2,5 mg 1-(3'--Hydroxyphenyl)-2-aminoäthanol als Aerosol sublingual verabreicht. In der nachfolgenden Tabelle I sind unter A die Vergleichswerte für den systolischen und den diastolischen Druck über die Zeit bei Versprühen eines Placebos, unter B die Werte für den systolischen und den diastolischen Druck über die Zeit bei Verabreichung von 2,5 mg Base als Aerosol und unter C die systolischen und diastolischen Druckwerte bei Verabreichung der gleichen Wirksubstanz als Hydrochlorid und oral über die Zeit aufgetragen, wobei mit dem Zeitpunkt 0 Referenzwerte vorangestellt sind. Aus Tabelle B ist hiebei der rasche diastolische Druckanstieg bei sublingualer Verabreichung als Aerosol ersichtlich, wohingegen aus Tabelle C eine Steigerung des diastolischen Drucks frühestens nach Ablauf von 15 min entnommen werden kann.
smiles,measurement,setting,value
"NCC(O)c1cccc(O)c1 (stereo not shown) [C, 1-(3'-Hydroxyphenyl)-2-aminoäthanol-hydrochlorid]",Steigerung des diastolischen Drucks (time of onset),,≥ 15 min
same,Diastole,1',"8,53 kPa"
same,Puls,1',64 min⁻¹
same,Systole,1',"14,40 kPa"
same,Diastole,3',"8,67 kPa"
same,Puls,3',66 min⁻¹
same,Systole,3',"14,00 kPa"
same,Diastole,5',"8,53 kPa"
same,Puls,5',71 min⁻¹
same,Systole,5',"14,27 kPa"
same,Diastole,7',"8,53 kPa"
same,Puls,7',68 min⁻¹
same,Systole,7',"14,40 kPa"
same,Diastole,10',"8,80 kPa"
same,Puls,10',66 min⁻¹
same,Systole,10',"14,67 kPa"
same,Diastole,12',"8,80 kPa"
same,Puls,12',68 min⁻¹
same,Systole,12',"13,87 kPa"
same,Diastole,15',"8,67 kPa"
same,Puls,15',77 min⁻¹
same,Systole,15',"14,40 kPa"
same,Diastole,20',"9,33 kPa"
same,Puls,20',52 min⁻¹
same,Systole,20',"14,93 kPa"
same,Diastole,25',"8,80 kPa"
same,Puls,25',67 min⁻¹
same,Systole,25',"13,73 kPa"
same,Diastole,30',"9,60 kPa"
same,Puls,30',69 min⁻¹
same,Systole,30',"14,27 kPa"

# From patent EP0213108A2, “Pharmaceutical preparation containing an antihypotonic as the active agent” (Burghart, Kurt, Dr., priority 1985, dated 1987)
